Measured values: ChEMBL document CHEMBL2057100, “The optimization of pyridazinone series of glucan synthase inhibitors” (Bioorg Med Chem Lett, 2012)
In brackets after ≈: the same amount, converted by molar mass. Activity calls are given as the source filed them. No cut-off for these calls is given here.

Columns and labels:
[1] = (§1) AUC (0 to 6 hrs) in rat at 10 mg/kg, po; assay type: ADME, organism-based, Plasma; design: time < 6 hr, dose 10 mg/kg, route oral; settings: plasma
Candida albicans [2] = assay: Antifungal activity against Candida albicans C693 by broth dilution method; assay type: functional; settings: read-out: MIC100
Beta-1,3-glucan synthase = target: T1, Beta-1,3-glucan synthase (Candida albicans, UniProt O13383); assay: Inhibition of 1,3-beta-D-glucan synthase in Candida albicans BWP17 membranes; assay type: cell membranes
T1 sequence (O13383 whole entry): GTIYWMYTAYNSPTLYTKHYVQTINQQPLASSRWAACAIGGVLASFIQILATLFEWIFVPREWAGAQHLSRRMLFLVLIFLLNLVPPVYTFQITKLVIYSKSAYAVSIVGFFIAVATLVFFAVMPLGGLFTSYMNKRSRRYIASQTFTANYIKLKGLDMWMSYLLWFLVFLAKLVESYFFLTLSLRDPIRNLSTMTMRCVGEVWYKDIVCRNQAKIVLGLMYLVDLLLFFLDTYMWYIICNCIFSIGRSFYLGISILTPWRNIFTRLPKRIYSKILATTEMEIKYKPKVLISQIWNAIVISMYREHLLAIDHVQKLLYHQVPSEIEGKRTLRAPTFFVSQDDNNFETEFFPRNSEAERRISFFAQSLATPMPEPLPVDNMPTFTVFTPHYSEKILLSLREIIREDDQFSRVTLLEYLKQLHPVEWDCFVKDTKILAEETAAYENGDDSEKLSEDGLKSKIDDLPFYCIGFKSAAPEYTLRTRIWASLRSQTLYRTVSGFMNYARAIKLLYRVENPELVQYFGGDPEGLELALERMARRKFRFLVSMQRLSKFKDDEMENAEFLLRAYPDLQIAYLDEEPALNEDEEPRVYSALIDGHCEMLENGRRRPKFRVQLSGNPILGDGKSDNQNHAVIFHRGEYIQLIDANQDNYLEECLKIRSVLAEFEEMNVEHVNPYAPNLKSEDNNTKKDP

Nakaseomyces glabratus = assay: Antifungal activity against Candida glabrata C624 by broth dilution method; assay type: functional; settings: read-out: MIC100
[3] = Cmax in rat at 10 mg/kg, po; assay type: ADME, organism-based; design: dose 10 mg/kg, route oral; settings: in vivo
Aspergillus fumigatus [4] = assay: Antifungal activity against Aspergillus fumigatus ND158 by broth dilution method; assay type: functional; settings: read-out: MEC
Candida albicans [5] = assay: Antifungal activity against Candida albicans C697 infected in normal mouse assessed as increase of host survival at 100 mg/kg, ip measured for 4 days; assay type: functional; settings: 96 h, route intraperitoneal
Candida albicans [6] = assay: Antifungal activity against Candida albicans C697 infected in immune compromised mouse assessed as increase of host survival at 100 mg/kg, ip measured for 4 days; assay type: functional; settings: 96 h, route intraperitoneal
Rattus norvegicus = assay: as §1; assay type: ADME, organism-based, Plasma; design: time < 6 hr, dose 10 mg/kg, route oral; settings: in vivo, 6 h, BLD = below limit of detection
Candida albicans [7] = assay: Antifungal activity against Candida albicans C697 infected in immune compromised mouse assessed as reduction of fungal burden in kidney at 100 mg/kg, ip; assay type: functional, organism-based; design: dose 100 mg/kg
Aspergillus fumigatus [8] = assay: Induction of morphological changes in Aspergillus fumigatus ND158 assessed as induction of truncated and highly branched hyphae; assay type: functional, organism-based
Candida albicans [9] = assay: Antifungal activity against Candida albicans C697 infected in normal mouse assessed as reduction of fungal burden in kidney at 100 mg/kg, ip; assay type: functional, organism-based; design: dose 100 mg/kg
Candida albicans [10] = assay: Antifungal activity against Candida albicans C697 infected in normal mouse assessed as increase of host survival at 5 mg/kg, ip measured for 4 days; assay type: functional; settings: 96 h, route intraperitoneal
Candida albicans [11] = assay: Antifungal activity against Candida albicans C697 infected in immune compromised mouse assessed as reduction of fungal burden in kidney at 5 mg/kg, ip; assay type: functional, organism-based; design: dose 5 mg/kg
Candida albicans [12] = assay: Antifungal activity against Candida albicans C697 infected in normal mouse assessed as reduction of fungal burden in kidney at 5 mg/kg, ip; assay type: functional, organism-based; design: dose 5 mg/kg
Candida albicans [13] = assay: Antifungal activity against Candida albicans C697 infected in immune compromised mouse assessed as increase of host survival at 5 mg/kg, ip measured for 4 days; assay type: functional; settings: 96 h, route intraperitoneal

Nc1cccc(CS(=O)(=O)N2CCN(c3cnn(-c4cc(F)cc(F)c4)c(=O)c3OC3CCCC3)CC2)c1
AUC(0-t) at 6 h [1]: 5700 ng·h/mL
MIC (Candida albicans [2]): 0.52 µg/mL (≈ 0.953 µM)
IC50 (Beta-1,3-glucan synthase): 0.128 µM
MIC (Nakaseomyces glabratus): 0.13 µg/mL (≈ 0.238 µM)

CC(C)c1cc(CS(=O)(=O)N2CCN(c3cnn(-c4cccc(Cl)c4)c(=O)c3OCC3(C)CC3)CC2)ccc1N
AUC(0-t) at 6 h [1]: 2100 ng·h/mL
MIC (Candida albicans [2]): > 33 µg/mL
Cmax [3]: 700 ng/mL
IC50 (Beta-1,3-glucan synthase): 0.631 µM
minimal effective concentration (Aspergillus fumigatus [4]): > 33 µg/mL
MIC (Nakaseomyces glabratus): 16.7 µg/mL (≈ 28.5 µM)

COc1cc(CS(=O)(=O)N2CCN(c3cnn(-c4cccc(Cl)c4)c(=O)c3OCC3(C)CC3)CC2)ccc1N
AUC(0-t) at 6 h [1]: 13100 ng·h/mL
MIC (Candida albicans [2]): 0.52 µg/mL (≈ 0.906 µM)
Cmax [3]: 3300 ng/mL
IC50 (Beta-1,3-glucan synthase): 0.105 µM
minimal effective concentration (Aspergillus fumigatus [4]): 2.08 µg/mL
MIC (Nakaseomyces glabratus): 0.06 µg/mL (≈ 0.105 µM)

Cc1cc(CS(=O)(=O)N2CCN(c3cnn(-c4cc(F)cc(F)c4)c(=O)c3OCC3(C)CC3)CC2)ccc1N
AUC(0-t) at 6 h [1]: 14500 ng·h/mL
MIC (Candida albicans [2]): 1.04 µg/mL (≈ 1.86 µM)
Cmax [3]: 3500 ng/mL
IC50 (Beta-1,3-glucan synthase): 0.125 µM
minimal effective concentration (Aspergillus fumigatus [4]): 4.2 µg/mL
MIC (Nakaseomyces glabratus): 0.13 µg/mL (≈ 0.232 µM)

Cc1cc(CS(=O)(=O)N2CCN(c3cnn(-c4cccc(Cl)c4)c(=O)c3OCC3(C)CC3)CC2)ccc1N [listing 1 of 3 here]
AUC(0-t) at 6 h [1]: 15000 ng·h/mL
MIC (Candida albicans [2]): 1.04 µg/mL (≈ 1.86 µM)
Cmax [3]: 3000 ng/mL
IC50 (Beta-1,3-glucan synthase): 0.143 µM
minimal effective concentration (Aspergillus fumigatus [4]): 2.08 µg/mL
MIC (Nakaseomyces glabratus): 0.13 µg/mL (≈ 0.233 µM)

Cc1cc(CS(=O)(=O)N2CCN(c3cnn(-c4cccc(Cl)c4)c(=O)c3OCC3(C)CC3)CC2)ccc1N [listing 2 of 3 here]
survival at 100 mg/kg (Candida albicans [5]): 100%
survival at 100 mg/kg (Candida albicans [6]): 100%

CC1(COc2c(N3CCN(S(=O)(=O)Cc4ccc(N)cc4)CC3)cnn(-c3cccc(Cl)c3)c2=O)CC1
AUC(0-t) at 6 h [1]: 8100 ng·h/mL
MIC (Candida albicans [2]): 1.04 µg/mL (≈ 1.91 µM)
Cmax [3]: 1900 ng/mL
IC50 (Beta-1,3-glucan synthase): 0.11 µM
minimal effective concentration (Aspergillus fumigatus [4]): 4.2 µg/mL
MIC (Nakaseomyces glabratus): 0.26 µg/mL (≈ 0.478 µM)

CCc1cc(CS(=O)(=O)N2CCN(c3cnn(-c4cccc(Cl)c4)c(=O)c3OCC3(C)CC3)CC2)ccc1N
AUC(0-t) at 6 h [1]: 9400 ng·h/mL
MIC (Candida albicans [2]): 4.2 µg/mL (≈ 7.34 µM)
Cmax [3]: 2300 ng/mL
IC50 (Beta-1,3-glucan synthase): 0.315 µM
minimal effective concentration (Aspergillus fumigatus [4]): 4.2 µg/mL
MIC (Nakaseomyces glabratus): 0.13 µg/mL (≈ 0.227 µM)

O=c1c(OC2CCCC2)c(N2CCN(S(=O)(=O)Cc3ccncc3)CC2)cnn1-c1cc(F)cc(F)c1
AUC(0-t) at 6 h [1]: 20 ng·h/mL
MIC (Candida albicans [2]): 3.1 µg/mL (≈ 5.83 µM)
IC50 (Beta-1,3-glucan synthase): 0.564 µM
MIC (Nakaseomyces glabratus): 0.2 µg/mL (≈ 0.376 µM)

O=c1c(OC2CCCC2)c(N2CCN(S(=O)(=O)Cc3cccc(O)c3)CC2)cnn1-c1cc(F)cc(F)c1
AUC (Rattus norvegicus): BLD
MIC (Candida albicans [2]): 2.1 µg/mL (≈ 3.84 µM)
IC50 (Beta-1,3-glucan synthase): 0.0915 µM
MIC (Nakaseomyces glabratus): 0.26 µg/mL (≈ 0.476 µM)

Cc1cc(CS(=O)(=O)N2CCN(c3cnn(-c4cccc(Cl)c4)c(=O)c3OCC3(C)CC3)CC2)ccc1N [listing 3 of 3 here]
Activity (Candida albicans [7]): Active
Activity (Aspergillus fumigatus [8]): Active
Activity (Candida albicans [9]): Active

Nc1ccc(CS(=O)(=O)N2CCN(c3cnn(-c4cc(F)cc(F)c4)c(=O)c3OC3CCCC3)CC2)cc1
AUC(0-t) at 6 h [1]: 8100 ng·h/mL
MIC (Candida albicans [2]): 1.04 µg/mL (≈ 1.91 µM)
IC50 (Beta-1,3-glucan synthase): 0.11 µM
MIC (Nakaseomyces glabratus): 0.26 µg/mL (≈ 0.477 µM)

CC1(COc2c(N3CCN(S(=O)(=O)Cc4ccnc(N)c4)CC3)cnn(-c3cccc(Cl)c3)c2=O)CC1
MIC (Candida albicans [2]): 16.7 µg/mL (≈ 30.6 µM)
IC50 (Beta-1,3-glucan synthase): 0.275 µM
minimal effective concentration (Aspergillus fumigatus [4]): 8.4 µg/mL
MIC (Nakaseomyces glabratus): 1.04 µg/mL (≈ 1.91 µM)

CC1(COc2c(N3CCN(S(=O)(=O)Cc4cccc(N)c4)CC3)cnn(-c3cccc(Cl)c3)c2=O)CC1
AUC(0-t) at 6 h [1]: 5700 ng·h/mL
MIC (Candida albicans [2]): 0.52 µg/mL (≈ 0.956 µM)
Cmax [3]: 1400 ng/mL
IC50 (Beta-1,3-glucan synthase): 0.0735 µM
minimal effective concentration (Aspergillus fumigatus [4]): 1.04 µg/mL
MIC (Nakaseomyces glabratus): 0.13 µg/mL (≈ 0.239 µM)

CC1(COc2c(N3CCN(S(=O)(=O)Cc4ccc(N)c(C(F)(F)F)c4)CC3)cnn(-c3cccc(Cl)c3)c2=O)CC1
AUC(0-t) at 6 h [1]: 640 ng·h/mL
MIC (Candida albicans [2]): > 33 µg/mL
Cmax [3]: 440 ng/mL
IC50 (Beta-1,3-glucan synthase): 0.637 µM
minimal effective concentration (Aspergillus fumigatus [4]): > 33 µg/mL
MIC (Nakaseomyces glabratus): 0.52 µg/mL (≈ 0.85 µM)

CC1(COc2c(N3CCN(S(=O)(=O)Cc4cccnc4N)CC3)cnn(-c3cccc(Cl)c3)c2=O)CC1
AUC(0-t) at 6 h [1]: 5200 ng·h/mL
MIC (Candida albicans [2]): 2.08 µg/mL (≈ 3.82 µM)
Cmax [3]: 1700 ng/mL
IC50 (Beta-1,3-glucan synthase): 0.239 µM
minimal effective concentration (Aspergillus fumigatus [4]): 8.4 µg/mL
MIC (Nakaseomyces glabratus): 0.06 µg/mL (≈ 0.11 µM)

CC1(COc2c(N3CCN(S(=O)(=O)Cc4ccc(N)nc4)CC3)cnn(-c3cccc(Cl)c3)c2=O)CC1
AUC(0-t) at 6 h [1]: 3100 ng·h/mL
MIC (Candida albicans [2]): 2.08 µg/mL (≈ 3.82 µM)
Cmax [3]: 1000 ng/mL
IC50 (Beta-1,3-glucan synthase): 0.0917 µM
minimal effective concentration (Aspergillus fumigatus [4]): 8.4 µg/mL
MIC (Nakaseomyces glabratus): 0.06 µg/mL (≈ 0.11 µM)

CC1(COc2c(N3CCN(S(=O)(=O)Cc4ccc(N)c(F)c4)CC3)cnn(-c3cc(F)cc(F)c3)c2=O)CC1
AUC(0-t) at 6 h [1]: 890 ng·h/mL
MIC (Candida albicans [2]): 0.26 µg/mL (≈ 0.461 µM)
Cmax [3]: 310 ng/mL
IC50 (Beta-1,3-glucan synthase): 0.0532 µM
minimal effective concentration (Aspergillus fumigatus [4]): 2.08 µg/mL
MIC (Nakaseomyces glabratus): 0.06 µg/mL (≈ 0.106 µM)

CC1(COc2c(N3CCN(S(=O)(=O)Cc4ccc(N)c(C(N)=O)c4)CC3)cnn(-c3cccc(Cl)c3)c2=O)CC1
MIC (Candida albicans [2]): > 33 µg/mL
IC50 (Beta-1,3-glucan synthase): 0.511 µM
minimal effective concentration (Aspergillus fumigatus [4]): > 33 µg/mL
MIC (Nakaseomyces glabratus): 8.34 µg/mL (≈ 14.2 µM)

CC[C@H](C)C[C@H](C)CCCCCCCCC(=O)N[C@H]1C[C@@H](O)[C@@H](NCCN)NC(=O)[C@@H]2[C@@H](O)CCN2C(=O)[C@H]([C@H](O)CCN)NC(=O)[C@H]([C@H](O)[C@@H](O)c2ccc(O)cc2)NC(=O)[C@@H]2C[C@@H](O)CN2C(=O)[C@H]([C@@H](C)O)NC1=O [CASPOFUNGIN]
survival at 5 mg/kg (Candida albicans [10]): 100%
Activity (Candida albicans [11]): Active
Activity (Candida albicans [12]): Active
survival at 5 mg/kg (Candida albicans [13]): 100%

CC1(COc2c(N3CCN(S(=O)(=O)Cc4ccc(N)c(Cl)c4)CC3)cnn(-c3cc(F)cc(F)c3)c2=O)CC1
AUC(0-t) at 6 h [1]: 1100 ng·h/mL
MIC (Candida albicans [2]): 0.13 µg/mL (≈ 0.224 µM)
Cmax [3]: 330 ng/mL
IC50 (Beta-1,3-glucan synthase): 0.069 µM
minimal effective concentration (Aspergillus fumigatus [4]): 0.52 µg/mL
MIC (Nakaseomyces glabratus): < 0.02 µg/mL
